For 3 molecules, mutagenic call results are on record in PubChem BioAssay AID1259407 (Chemical Carcinogenesis Research Information System (CCRIS), 2018).

This series deals with CCRIS mutagenicity, Ames/micronucleus/aberration tests. The series can be described thus: CCRIS mutagenicity studies.
Where [1] appears, read: Test System: AMES SALMONELLA TYPHIMURIUM, Strain/Indicator: TA98, Metabolic Activation: RAT, LIVER, S-9, AROCLOR 1254, Method: STANDARD PLATE.
The mark [2] stands for this setting: Test System: AMES SALMONELLA TYPHIMURIUM, Strain/Indicator: TA100, Metabolic Activation: NONE, Method: STANDARD PLATE.
[3] abbreviates: Test System: AMES SALMONELLA TYPHIMURIUM, Strain/Indicator: TA100, Metabolic Activation: RAT, LIVER, S-9, AROCLOR 1254, Method: STANDARD PLATE.
Setting [4] is: Test System: AMES SALMONELLA TYPHIMURIUM, Strain/Indicator: TA1538, Metabolic Activation: HAMSTER, LIVER, S-9, AROCLOR 1254, Method: STANDARD PLATE.

Calls of active or inactive are those of the source. How the calls were made is not given here.

`Nc1ccc(Cl)c(N)c1`: the mutagenic call reads like this: (End Point: IN VITRO CHROMOSOMAL ABERRATIONS, Test System: CHL CELLS, Metabolic Activation: RAT, LIVER, S-9, SODIUM PHENOBARBITAL AND 5,6-BENZOFLAVONE) “active; positive (structural changes)”; (End Point: IN VITRO CHROMOSOMAL ABERRATIONS, Test System: CHO-LB CELLS, Metabolic Activation: RAT, LIVER, S-9, AROCLOR 1254) “inactive; negative”; (Test System: AMES SALMONELLA TYPHIMURIUM, Strain/Indicator: TA98, Metabolic Activation: HAMSTER, LIVER, S-9, AROCLOR 1254, Method: STANDARD PLATE) “active; positive”; (Test System: AMES SALMONELLA TYPHIMURIUM, Strain/Indicator: TA98, Metabolic Activation: HAMSTER, LIVER, S-9, Method: STANDARD PLATE) “active; positive”; (Test System: AMES SALMONELLA TYPHIMURIUM, Strain/Indicator: TA98, Metabolic Activation: MOUSE, LIVER, S-9, AROCLOR 1254, Method: STANDARD PLATE) “active; positive”; (Test System: AMES SALMONELLA TYPHIMURIUM, Strain/Indicator: TA98, Metabolic Activation: MOUSE, LIVER, S-9, Method: STANDARD PLATE) “active; positive”. For the same molecule, the mutagenic call by setting is: under setting [1], “active; positive”; (Test System: AMES SALMONELLA TYPHIMURIUM, Strain/Indicator: TA98, Metabolic Activation: RAT, LIVER, S-9, Method: STANDARD PLATE) “active; positive”; (Test System: AMES SALMONELLA TYPHIMURIUM, Strain/Indicator: TA100, Metabolic Activation: HAMSTER, LIVER, S-9, AROCLOR 1254, Method: STANDARD PLATE) “active; positive”; under setting [2], “inactive; negative”; under setting [3], “active; positive”; (Test System: AMES SALMONELLA TYPHIMURIUM, Strain/Indicator: TA1535, Metabolic Activation: HAMSTER, LIVER, S-9, AROCLOR 1254, Method: STANDARD PLATE) “inactive; negative”. Besides, the mutagenic call (Test System: AMES SALMONELLA TYPHIMURIUM, Strain/Indicator: TA1535, Metabolic Activation: HAMSTER, LIVER, S-9, Method: STANDARD PLATE) is “inactive; negative”; the mutagenic call (Test System: AMES SALMONELLA TYPHIMURIUM, Strain/Indicator: TA1535, Metabolic Activation: MOUSE, LIVER, S-9, AROCLOR 1254, Method: STANDARD PLATE) was “inactive; negative”; the mutagenic call (Test System: AMES SALMONELLA TYPHIMURIUM, Strain/Indicator: TA1535, Metabolic Activation: MOUSE, LIVER, S-9, Method: STANDARD PLATE) is “inactive; negative”; the mutagenic call (Test System: AMES SALMONELLA TYPHIMURIUM, Strain/Indicator: TA1535, Metabolic Activation: NONE, Method: STANDARD PLATE) was “inactive; negative”; the mutagenic call (Test System: AMES SALMONELLA TYPHIMURIUM, Strain/Indicator: TA1535, Metabolic Activation: RAT, LIVER, S-9, Method: STANDARD PLATE) is “inactive; negative”; the mutagenic call (Test System: AMES SALMONELLA TYPHIMURIUM, Strain/Indicator: TA1537, Metabolic Activation: HAMSTER, LIVER, S-9, AROCLOR 1254, Method: STANDARD PLATE) is “active; positive”. The mutagenic call is “active; positive” (Test System: AMES SALMONELLA TYPHIMURIUM, Strain/Indicator: TA1537, Metabolic Activation: HAMSTER, LIVER, S-9, Method: STANDARD PLATE); “active; positive” (Test System: AMES SALMONELLA TYPHIMURIUM, Strain/Indicator: TA1537, Metabolic Activation: MOUSE, LIVER, S-9, AROCLOR 1254, Method: STANDARD PLATE); “inactive; negative” (Test System: AMES SALMONELLA TYPHIMURIUM, Strain/Indicator: TA1537, Metabolic Activation: NONE, Method: STANDARD PLATE); “active; positive” (Test System: AMES SALMONELLA TYPHIMURIUM, Strain/Indicator: TA1537, Metabolic Activation: RAT, LIVER, S-9, AROCLOR 1254, Method: STANDARD PLATE); “inactive; negative” (Test System: AMES SALMONELLA TYPHIMURIUM, Strain/Indicator: TA1537, Metabolic Activation: RAT, LIVER, S-9, Method: STANDARD PLATE); “active; positive” under setting [4]. For the same molecule, the mutagenic call runs as follows: (Test System: AMES SALMONELLA TYPHIMURIUM, Strain/Indicator: TA1538, Metabolic Activation: HAMSTER, LIVER, S-9, Method: STANDARD PLATE) “active; positive”; (Test System: AMES SALMONELLA TYPHIMURIUM, Strain/Indicator: TA1538, Metabolic Activation: MOUSE, LIVER, S-9, AROCLOR 1254, Method: STANDARD PLATE) “active; positive”; (Test System: AMES SALMONELLA TYPHIMURIUM, Strain/Indicator: TA1538, Metabolic Activation: MOUSE, LIVER, S-9, Method: STANDARD PLATE) “active; positive”; (Test System: AMES SALMONELLA TYPHIMURIUM, Strain/Indicator: TA1538, Metabolic Activation: RAT, LIVER, S-9, AROCLOR 1254, Method: STANDARD PLATE) “active; positive”; (Test System: AMES SALMONELLA TYPHIMURIUM, Strain/Indicator: TA1538, Metabolic Activation: RAT, LIVER, S-9, Method: STANDARD PLATE) “active; positive”; (Test System: E. COLI, Strain/Indicator: WP2 UVRA, Metabolic Activation: HAMSTER, LIVER, S-9, AROCLOR 1254, Method: STANDARD PLATE) “inactive; negative”. Moreover, the mutagenic call by setting is: (Test System: E. COLI, Strain/Indicator: WP2 UVRA, Metabolic Activation: HAMSTER, LIVER, S-9, Method: STANDARD PLATE) “inactive; negative”; (Test System: E. COLI, Strain/Indicator: WP2 UVRA, Metabolic Activation: MOUSE, LIVER, S-9, AROCLOR 1254, Method: STANDARD PLATE) “inactive; negative”; (Test System: E. COLI, Strain/Indicator: WP2 UVRA, Metabolic Activation: MOUSE, LIVER, S-9, Method: STANDARD PLATE) “inactive; negative”; (Test System: E. COLI, Strain/Indicator: WP2 UVRA, Metabolic Activation: NONE, Method: STANDARD PLATE) “inactive; negative”; (Test System: E. COLI, Strain/Indicator: WP2 UVRA, Metabolic Activation: RAT, LIVER, S-9, AROCLOR 1254, Method: STANDARD PLATE) “inactive; negative”; (Test System: E. COLI, Strain/Indicator: WP2 UVRA, Metabolic Activation: RAT, LIVER, S-9, Method: STANDARD PLATE) “inactive; negative”.

In the case of `Cc1cc(N)sn1`, the mutagenic call (Test System: AMES SALMONELLA TYPHIMURIUM, Strain/Indicator: TA102, Metabolic Activation: RAT, LIVER, S-9, AROCLOR 1254, HAMSTER, LIVER, S-9, AROCLOR 1254, Method: PREINCUBATION) was “active; positive”; the mutagenic call (Test System: AMES SALMONELLA TYPHIMURIUM, Strain/Indicator: TA1538, Metabolic Activation: HAMSTER, LIVER, S-9, AROCLOR 1254 (5, 10%), Method: STANDARD PLATE) is “active; positive”; the mutagenic call under setting [4] was “active; positive”; the mutagenic call (Test System: MOUSE LYMPHOMA, Strain/Indicator: L5178Y (TK+/TK-), Metabolic Activation: NONE, Method: SUSPENSION/PLATE) is “active; positive. reevaluation of results: inconclusive”; the mutagenic call (Test System: MOUSE LYMPHOMA, Strain/Indicator: L5178Y (TK+/TK-), Metabolic Activation: RAT, LIVER, S-9, AROCLOR 1254, Method: SUSPENSION/PLATE) is “active; positive. reevaluation of results: equivocal”.

Consider `Clc1cccc2cc3ccccc3cc12`, for which the mutagenic call runs as follows: (Test System: AMES SALMONELLA TYPHIMURIUM, Strain/Indicator: TA98, Metabolic Activation: NONE, Method: STANDARD PLATE) “inactive; negative”; under setting [1], “inactive; negative”; under setting [2], “inactive; negative”; under setting [3], “inactive; negative”.
